Test: MTT assay on MCA205 cell line
Format: cell-based, mouse
Conditions: mouse, MCA205 sarcoma cells, MTT, read-out: % cell viability (±SEM)
Method: RNA was extracted and qRT-PCR was performed with primers amplifying the unspliced (intron) and the spliced (exon) globin-SL8-intron RNA. Data are given as mean ±SEM of the ratio of 2^−ΔΔCt intron and 2^−ΔΔCt exon of at least three independent experiments. […] Data are express as mean ±SEM of the percentage of viable cells compared to the control condition of at least three independent experiments. *P<0.05, **P<0.01, ***P<0.001 (unpaired student t test).
MCA205 mouse sarcoma cell line is cultured at 37° C. under 5% CO2 in RPMI 1640 medium (Life Technologies) in the presence of 1% glutamine, 1% sodium pyruvate, 1% non-essential amino-acids, 1% penicillin/streptomycin and 10% FBS (Life Technologies) under standard conditions. B16F10 mouse melanoma cell line, MRC5 human fibroblast cell line and A375 human melanoma cell line are cultured at 37° C. under 5% CO2 in DMEM medium (Life Technologies) containing 1% glutamine, 1% penicillin/streptomycin and 10% FCS under standard conditions. A549 human lung carcinoma cell line is cultured at 37° C. under 5% CO2 in DMEM/F12+Glutamax I in the presence of 1% Hepes, 1% sodium pyruvate and 10% FBS under standard conditions. Stable MCA205-Globin-SL8-intron cell line are cultured under the same condition as MCA205 cell line with additional 2 mg/ml G418 (geneticin from Life Technologies) for selection. Stable B16F10-Globin-SL8-intron cell line are cultured under the same condition as B16F10 cell line with additional 2 mg/ml G418 (geneticin from Life Technologies) for selection. The SL8/Kb-specific (B3Z) T-cell reporter hybridoma are cultured at 37° C. under 5% CO2 in RPMI 1640 medium (Life Technologies) in the presence of 1% glutamine, 0.1% β-galactosidase, 1% penicillin/streptomycin and 10% FCS under standard conditions.
MTT assay on MCA205 and B16F10 cell lines treated with 6.25 μM, 15 μM or 25 μM of isoginkgetin. Dare are given as the mean of the percentage of cell viability ±SEM from at least three independent experiments.

`COc1ccc(-c2cc(=O)c3c(O)cc(O)c(-c4cc(-c5cc(=O)c6c(O)cc(O)cc6o5)ccc4OC)c3o2)cc1` [Isoginkgetin, isoginkgetin] gave a viability at 6.25 µM (MCA205, 6.25 μM) of 84.8%, a viability at 15 µM (MCA205, 15 μM) of 56.3% and a viability at 25 µM (MCA205, 25 μM) of 51.7%.

From patent US11110105B2, “Compounds, composition and uses thereof for treating cancer” (INSTITUT GUSTAVE ROUSSY, priority 2017, dated 2021)
